Laboratory results from PMC5731253 (Journal of medicinal chemistry, 2017).
Like-named read-outs stand apart in the source and are kept apart here.

Tests used:
[1] = tested on: human embryonic lung (HEL) fibroblasts
[2] = tested on: thymidine kinase-deficient (TK−) HSV-1 KOS strain; assay type: cell-based, herpes simplex virus type 1; settings: HEL cell cultures
[3] = tested on: human embryonic lung (HEL) fibroblasts; assay: Minimum cytotoxic concentration, HEL cell morphology
TK- VZV (07-1) = assay type: cell-based, varicella-zoster virus
HIV-1 = HIV-1 inhibition in human tonsillar tissues ex vivo; assay type: cell-based, human immunodeficiency virus type 1; settings: HIV-1 X4LAI.04, 12 days culture

Row | SMILES | Cytotoxicity MCC [1] [µM] | Cytotoxicity MCC ([3]; Table 3 (HSV assays)) [µM] | Cytotoxicity MCC ([3]; Table 4 (HCMV/VZV assays)) [µM] | fold more active than ACV against VZV TK− 07-1 strain (TK- VZV (07-1)) [fold] | further results
1 | Nc1nc(O)c2ncn(COC(CO)CO)c2n1 [Compound 1, ganciclovir, reference compound] | >100 |  |  |  | 
2 | Nc1nc2c(ncn2CCC(CO)CO)c(=O)[nH]1 [Compound 2, penciclovir, reference compound] | >100 |  |  |  | 
3 | CC(C)(NP(=O)(OCC(CO)OCn1cnc2c(=O)[nH]c(N)nc21)Oc1ccccc1)C(=O)OCc1ccccc1 (stereo not shown) [Compound 20] |  | >100 | >50 | ≥ 20 | fold difference in EC50 values between HSV-1 TK+ and TK− strains [2]: < 2.5 fold
4 | C[C@H](NP(=O)(OCC(CO)OCn1cnc2c(=O)[nH]c(N)nc21)Oc1ccccc1)C(=O)OCc1ccccc1 (stereo partly shown) [Compound 27] |  | >100 | >100 | ≥ 20 | 
5 | C[C@H](NP(=O)(OCC(COP(=O)(N[C@@H](C)C(=O)OCc1ccccc1)Oc1ccccc1)SCn1cnc2c(=O)[nH]c(N)nc21)Oc1ccccc1)C(=O)OCc1ccccc1 (stereo partly shown) [Compound 55] |  |  |  |  | Anti-HIV Activity EC50 (HIV-1): did not inhibit HIV
